Several values for one entry are separate records, joined by “and”; a condition that tells them apart may be missing. Identical values can stand only once.
Columns and labels:
[1] = Pharmacokinetics of furosemide in rats with and without Juncus effusus extract; format: in vivo; conditions: FS 10 mg/kg i.v. alone
hOAT3 = molecular target: T1, hOAT3 (Homo sapiens, UniProt Q8TCC7); experiment: Inhibition of 6-CF uptake in HEK-OAT3 cells (screening at 5 μg/ml and concentration-dependent inhibition); format: cell-based; parameters: Invitrogen (Flp-In system, cells); 6-CF uptake OAT3, Figure 2 raw data (single replicates) / OAT3-mediated 6-CF uptake (Inhibitory effects of butanol extracts on OAT-mediated 6-CF), raw replicate values / OAT3-mediated 6-CF uptake (Inhibitory effects of aqueous extracts on OAT-mediated 6-CF), raw replicate values: unit not given here
T1 sequence (Q8TCC7 1-542): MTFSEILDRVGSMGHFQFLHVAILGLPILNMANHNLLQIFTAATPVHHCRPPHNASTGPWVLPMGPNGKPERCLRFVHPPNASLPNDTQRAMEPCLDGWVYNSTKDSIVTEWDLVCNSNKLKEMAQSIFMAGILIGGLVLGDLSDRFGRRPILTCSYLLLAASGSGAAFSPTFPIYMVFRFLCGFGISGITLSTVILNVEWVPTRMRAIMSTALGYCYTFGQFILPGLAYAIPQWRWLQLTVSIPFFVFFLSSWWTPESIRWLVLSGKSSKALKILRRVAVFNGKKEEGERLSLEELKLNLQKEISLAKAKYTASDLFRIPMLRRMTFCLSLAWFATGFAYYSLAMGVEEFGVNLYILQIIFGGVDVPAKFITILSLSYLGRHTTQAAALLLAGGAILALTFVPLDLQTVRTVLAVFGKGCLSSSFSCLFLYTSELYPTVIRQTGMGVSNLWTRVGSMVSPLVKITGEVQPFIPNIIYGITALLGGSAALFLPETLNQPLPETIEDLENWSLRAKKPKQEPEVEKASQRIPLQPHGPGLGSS
Description: The stock solutions of plant extracts were prepared using DMSO with a final concentration of 1 mg/ml. The initial concentration for each extract was set at 5 μg∕ml. Every well contained the same concentration of DMSO (0.5%) to eliminate the potential effect of solvent. […] Before the initial screening, the reproducibility of uptake experiments was evaluated. […] Due to the large number of samples, for the initial screening study, each uptake experimental sample was measured in triplicates in the same assay.
After the uptake was terminated at 4 min and 10 min for OAT1 and OAT3 respectively, intracellular fluorescence was determined as above.

Compound	Clobs of FS [1]	V z_obs of FS [1]	6-CF fluorescence of cells (fluorescence images) (hOAT3; HEK-OAT3, co-incubation with probenecid 30 μM)	OAT3-mediated 6-CF uptake (Inhibitory effects of aqueous extracts on OAT-mediated 6-CF), raw replicate values (hOAT3; aqueous extracts, screening at 5 μg/ml, HEK-OAT3 cells, three replicate columns, Control about 100, Prob = positive control)	OAT3-mediated 6-CF uptake (Inhibitory effects of butanol extracts on OAT-mediated 6-CF), raw replicate values (hOAT3; butanol extracts, screening at 5 μg/ml, HEK-OAT3 cells, three replicate columns, Control about 100, Prob = positive control)	6-CF uptake OAT3, Figure 2 raw data (single replicates) (hOAT3; probenecid 30 μM positive control, 6-CF 4 μM, 10 min, HEK-OAT3)
NS(=O)(=O)c1cc(C(=O)O)c(NCc2ccco2)cc1Cl [FS, furosemide]	1.0 ± 1.0 L/min/kg × 10^−3	146.9 ± 12.1 L/kg ×10^−3	–	–	–	–
CCCN(CCC)S(=O)(=O)c1ccc(C(=O)O)cc1 [probenecid, Probenecid]	–	–	almost completely abolished	2.375 and 2.144 and 0.9311	2.375 and 2.144 and 0.9311	2.375 and 2.144 and 0.9311

Source: PMC5446775, “Interactions of 172 plant extracts with human organic anion transporter 1 (SLC22A6) and 3 (SLC22A8): a study on herb-drug interactions” (PeerJ, 2017)
